# Changes are numbered by the printed parent chain.
# Columns and labels:
# [1] = test system: testosterone-induced hair growth suppression; assay: Testosterone-induced alopecia model, hair re-growth; format: in vivo, C57BL/6J mice; details: testosterone mornings
# Procedure: C57BL/6J mice were used in this animal model for hair loss and regrowth (Uno et al. (1990) J. Cutaneous Aging & Cosm. Derm., 1:193, which is incorporated by reference in its entirety herein). Six-week-old male mice (6 to 7 animals per group) were shaved with an electric clipper, and then treated with a hair-removal cream for 1 to 2 minutes. […] One day after hair removal, a first group of animals each received 100 microliters of a 1% testosterone solution in ethanol, applied topically to the shaved area, once each morning for twenty consecutive days. A second group of animals each received 100 microliters of vehicle (ethanol) alone, applied topically to the shaved area, once each morning for twenty consecutive days. The first group of mice (testosterone-treated) were divided further into a control group and a treatment group. Also beginning one day after hair removal, each mouse in the control group received 100 microliters of a control solution (60% ethanol, 20% propylene glycol, and 20% water) and each mouse in the treatment group received 100 microliters of the test compound, ASC-J9 (0.02% in the same 60% ethanol, 20% propylene glycol, and 20% water solution), applied topically to the shaved area, once each afternoon for twenty consecutive days. Hair re-growth in the shaved areas was observed and photographed at 0, 4, 8, 11 and 14 days after beginning of the topical treatments.
# [2] = target: T1, androgen receptor (AR) (Homo sapiens, UniProt P10275, T878A); assay: Western blot analysis of AR expression in LNCaP cells; format: cell-based
# T1 construct: endogenous in cells; host or cells: LNCaP
# T1 sequence (P10275 1-920 T878A): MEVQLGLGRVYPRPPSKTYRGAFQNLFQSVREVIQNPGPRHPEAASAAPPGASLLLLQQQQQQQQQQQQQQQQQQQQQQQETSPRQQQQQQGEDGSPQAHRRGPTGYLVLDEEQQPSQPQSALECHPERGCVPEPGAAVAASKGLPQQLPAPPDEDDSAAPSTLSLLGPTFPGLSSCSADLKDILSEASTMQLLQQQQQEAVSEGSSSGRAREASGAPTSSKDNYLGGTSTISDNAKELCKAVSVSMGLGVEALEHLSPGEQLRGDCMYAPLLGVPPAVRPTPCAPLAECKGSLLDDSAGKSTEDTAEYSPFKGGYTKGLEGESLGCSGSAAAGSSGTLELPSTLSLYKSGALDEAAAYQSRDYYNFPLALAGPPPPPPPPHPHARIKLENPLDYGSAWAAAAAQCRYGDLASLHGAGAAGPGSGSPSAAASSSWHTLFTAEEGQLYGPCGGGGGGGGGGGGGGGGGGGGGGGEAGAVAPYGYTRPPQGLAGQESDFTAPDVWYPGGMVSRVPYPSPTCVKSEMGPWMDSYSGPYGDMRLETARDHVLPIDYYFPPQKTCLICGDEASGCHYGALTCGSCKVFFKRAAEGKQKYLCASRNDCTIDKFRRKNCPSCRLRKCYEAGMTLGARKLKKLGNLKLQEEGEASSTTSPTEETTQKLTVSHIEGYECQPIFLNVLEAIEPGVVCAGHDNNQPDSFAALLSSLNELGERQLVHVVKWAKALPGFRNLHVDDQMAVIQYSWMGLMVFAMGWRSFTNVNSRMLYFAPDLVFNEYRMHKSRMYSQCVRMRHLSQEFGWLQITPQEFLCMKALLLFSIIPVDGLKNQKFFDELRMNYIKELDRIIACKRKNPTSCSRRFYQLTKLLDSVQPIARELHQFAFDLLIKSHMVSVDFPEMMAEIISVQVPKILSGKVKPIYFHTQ
# Source text: Briefly, cells (for example, LNCap cells) are harvested either in 2× sodium dodecyl sulfate (SDS) loading buffer or in radioimmunoprecipitation assay (RIPA) lysis buffer (see “Antibodies: A Laboratory Manual”, E. Harlow and D. Lane, Cold Spring Harbor Laboratory, 1988) containing 10 micrograms/milliliter of benzamidine, 10 micrograms/milliliter of trypsin inhibitor, and 1 millimolar of phenylmethylsulfonyl fluoride (PMSF). Total protein (40 micrograms/sample, or as desired) from cell lysate is separated on a SDS-PAGE gel. After separation, proteins are transferred from the gel to a nitrocellulose membrane following standard Western blot procedures. The membrane is blocked with a suitable blocking agent (such as 10% non-fat milk in phosphate-buffered saline supplemented with 0.1% Tween-20 (PBST)) to reduce non-specific binding overnight. The membrane is incubated with a suitable primary antibody specific for human AR (for example, anti-human AR from BD-PharMingen) at 4 degrees Celsius overnight or at room temperature for 2 hours. […] The membrane is rinsed with PBST, and a suitable visualization procedure is used to detect the secondary antibody (for example, horseradish peroxidase can be detected with a colorimetric substrate or by a chemiluminescent substrate such as that provided by the enhanced chemiluminescence (ECL Plus) kit from Amersham). […] Quantification of the protein signals can be carried out by densitometry, using appropriate software (ImageJ software from the National Institutes of Health).
# LNCaP cells from the above described experiment were harvested at designated times, cell lysate was prepared for Western blot analysis as described previously. A color detection method was subsequently employed to examine AR and actin protein signals in the membranes, and the resultant protein signals were quantitated by densitometry. In FIG. 4B, normalized AR signals (as relative to actin protein) are reported, which were expressed as a percentage of baseline (Day 0) value. […]
# Cells were then harvested and AR protein was quantified by Western blot.
# [3] = target: T2, androgen receptor (AR) (Homo sapiens, UniProt P10275); assay: Specificity Western blot in T47D cell lysates, AR; format: cell-based; details: 5 or 10 micromolar, presence or absence of estrodial (E2)
# T2 construct: Incubating T47D cells with ASC-J9 (5 or 10 micromolar) in the presence or absence of estrodial (E2) decreased the cellular concentrations of AR; endogenous in cells; host or cells: T47D
# T2 sequence (P10275 1-920): T1 sequence (P10275 1-920 T878A) with A878T
# Procedure: Human prostate cancer LNCaP cells and T47D cells were plated at a density of 7×10^5 cells per 60 millimeter tissue culture dish in […] medium containing 10% FBS. The medium was changed to RPMI or DME medium containing 10% charcoal-stripped serum 24 hours later to deplete cellular androgens or estrogens. After another 24 hours, treatment with the test compounds began. The test dose of ASC-J9 was 1, and 5 and micromolar. LNCap cells also received dihydrotestosterone (DHT) (3 nanomolar). Control cells received a corresponding amount of the vehicle, dimethylsulfoxide (DMSO) (<0.04%) for an equivalent exposure time. Cells were incubated with ASC-J9 for 24 hours, and were lysed in 250 microliters of 1×SDS/PAGE loading buffer. Approximately 40 micrograms of total cellular protein was loaded in each lane of a pre-cast gel (NuPAGE, Invitrogen). Protein separation and transfer were performed following the manufacturer's instructions.
compound,measurement,setting,value
"COc1ccc(C=CC(=O)C=C(O)C=Cc2ccc(OC)c(OC)c2)cc1OC [ASC-J9, 5-hydroxy-1,7-bis(3,4-dimethoxyphenyl)-1,4,6-heptatrien-3-one]",hair re-growth in shaved areas,"[1]; 0.02% topical afternoons, day 8 to day 17",rapid re-growth of hair
same,hair re-growth in shaved areas,"[1]; topical afternoons, after 20 days",fully re-growth of hair
same,time at which AR reduction was first observed,"[2]; 5 μM, continuous incubation",2 days
same,"AR remaining, normalized AR signal as percentage of baseline (Day 0)","[2]; 5 μM, end of 5-day incubation",~10%
same,"AR protein, ARD enhancer compared with conventional anti-androgens","[2]; 48 hours, Western blot (FIG. 7B)",decreased AR protein
same,cellular concentration of AR,[3],decreased

# From patent publication US9446127B2, “Compositions including androgen receptor degradation (ARD) enhancers and methods of prophylactic or therapeutic treatment of skin disorders and hair loss” (AndroScience Corporation, priority 2007, dated 2016)
